According to the supplement of paper PMC10307832:

What was measured:
Assay in all cases: relative viability (nuclei count vs DMSO), 5 days (fraction); higher = more cells survive
[1] = compound: C=CCc1cccc(/C=N/NC(=O)CN2CCN(Cc3ccccc3)CC2)c1O [PAC-1] + CCNC(=O)c1noc(-c2cc(C(C)C)c(O)cc2O)c1-c1ccc(CN2CCOCC2)cc1 [Luminespib] (partner 0.01 µM)
Summary of the method: (§1)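 Relative viability is defined as nuclei in treated wells over nuclei in vehicle wells. Duplicate plates were run and medians reported. Lung cancer cell lines in 1536-well plates were dosed by pin tool one day after seeding, with one drug or with a fixed anchor-drug dose plus five library-drug doses (not always all listed) in √10 steps, and nuclei were counted after 5 days.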

[2] = compound: C=CC(=O)Nc1cc(-n2c(=O)ccc3cnc4ccc(-c5ccc(NS(C)(=O)=O)cc5)cc4c32)ccc1C [BMX-IN-1] + CC(C)C[C@H](NC(=O)[C@H](Cc1ccccc1)NC(=O)c1cnccn1)B(O)O [Bortezomib] (partner 0.002 µM)
Summary of the method: as §1

[3] = compound: C=CC(=O)Nc1cc(-n2c(=O)ccc3cnc4ccc(-c5ccc(NS(C)(=O)=O)cc5)cc4c32)ccc1C [BMX-IN-1] + CCNC(=O)c1noc(-c2cc(C(C)C)c(O)cc2O)c1-c1ccc(CN2CCOCC2)cc1 [Luminespib] (partner 0.01 µM)
Summary of the method: as §1

[4] = compound: C=CC(=O)N1CCC[C@@H](n2nc(-c3ccc(Oc4ccccc4)cc3)c3c(N)ncnc32)C1 [Ibrutinib] + Nc1nc2[nH]cc(CCc3ccc(C(=O)N[C@@H](CCC(=O)O)C(=O)O)cc3)c2c(=O)[nH]1 [Pemetrexed] (partner 0.2 µM)
Summary of the method: as §1

With NCI-H322M the relative viability ([1]; first compound 0.02 µM) was 0.812, the relative viability ([1]; first compound 0.06325 µM) was 0.832 and the relative viability ([1]; first compound 0.2 µM) was 0.848. It also gave a relative viability ([1]; first compound 2 µM) of 0.775, a relative viability ([2]; first compound 0.02 µM) of 1.33 and a relative viability ([2]; first compound 0.2 µM) of 1.25. It also gave a relative viability ([2]; first compound 0.6325 µM) of 1.2, a relative viability ([2]; first compound 2 µM) of 1.36 and a relative viability ([3]; first compound 0.02 µM) of 0.847. For the same cell line, the relative viability ([3]; first compound 0.2 µM) was 0.807, the relative viability ([3]; first compound 0.6325 µM) was 0.756 and the relative viability ([3]; first compound 2 µM) was 0.883. It also gave a relative viability ([4]; first compound 0.005 µM) of 0.659, a relative viability ([4]; first compound 0.01581 µM) of 0.572 and a relative viability ([4]; first compound 0.05 µM) of 0.605. The relative viability ([4]; first compound 0.1581 µM) was 0.537 and the relative viability ([4]; first compound 0.5 µM) was 0.536.
HCC-44 showed a relative viability ([1]; first compound 0.02 µM) of 1.04, a relative viability ([1]; first compound 0.06325 µM) of 1.14 and a relative viability ([1]; first compound 0.2 µM) of 1.01. The relative viability ([1]; first compound 2 µM) was 0.964, the relative viability ([2]; first compound 0.02 µM) was 0.902 and the relative viability ([2]; first compound 0.2 µM) was 1.06. For the same cell line, the relative viability ([2]; first compound 0.6325 µM) was 1.07, the relative viability ([2]; first compound 2 µM) was 0.957 and the relative viability ([3]; first compound 0.02 µM) was 1.29. The relative viability ([3]; first compound 0.2 µM) was 1.27, the relative viability ([3]; first compound 0.6325 µM) was 0.821 and the relative viability ([3]; first compound 2 µM) was 1.04. For the same cell line, the relative viability ([4]; first compound 0.005 µM) was 0.711, the relative viability ([4]; first compound 0.01581 µM) was 0.669 and the relative viability ([4]; first compound 0.05 µM) was 0.624. It also gave a relative viability ([4]; first compound 0.1581 µM) of 0.64 and a relative viability ([4]; first compound 0.5 µM) of 0.987.
For NCI-H441, the relative viability ([1]; first compound 0.02 µM) was 0.285, the relative viability ([1]; first compound 0.06325 µM) was 0.254 and the relative viability ([1]; first compound 0.2 µM) was 0.471. It also gave a relative viability ([1]; first compound 2 µM) of 0.335, a relative viability ([2]; first compound 0.02 µM) of 0.483 and a relative viability ([2]; first compound 0.2 µM) of 0.517. For the same cell line, the relative viability ([2]; first compound 0.6325 µM) was 0.483, the relative viability ([2]; first compound 2 µM) was 0.27 and the relative viability ([3]; first compound 0.02 µM) was 0.384. It also gave a relative viability ([3]; first compound 0.2 µM) of 0.428, a relative viability ([3]; first compound 0.6325 µM) of 0.56 and a relative viability ([3]; first compound 2 µM) of 0.279. For the same cell line, the relative viability ([4]; first compound 0.005 µM) was 0.287, the relative viability ([4]; first compound 0.01581 µM) was 0.269 and the relative viability ([4]; first compound 0.05 µM) was 0.293. It also gave a relative viability ([4]; first compound 0.1581 µM) of 0.263 and a relative viability ([4]; first compound 0.5 µM) of 0.301.
With NCI-H2347 the relative viability ([1]; first compound 0.02 µM) was 0.302, the relative viability ([1]; first compound 0.06325 µM) was 0.427 and the relative viability ([1]; first compound 0.2 µM) was 0.536. For the same cell line, the relative viability ([1]; first compound 2 µM) was 0.583, the relative viability ([2]; first compound 0.02 µM) was 0.985 and the relative viability ([2]; first compound 0.2 µM) was 1.24. For the same cell line, the relative viability ([2]; first compound 0.6325 µM) was 1.14, the relative viability ([2]; first compound 2 µM) was 1 and the relative viability ([3]; first compound 0.02 µM) was 0.438. It also gave a relative viability ([3]; first compound 0.2 µM) of 0.356, a relative viability ([3]; first compound 0.6325 µM) of 0.517 and a relative viability ([3]; first compound 2 µM) of 0.353. It also gave a relative viability ([4]; first compound 0.005 µM) of 0.454, a relative viability ([4]; first compound 0.01581 µM) of 0.4 and a relative viability ([4]; first compound 0.05 µM) of 0.434. It also gave a relative viability ([4]; first compound 0.1581 µM) of 0.462 and a relative viability ([4]; first compound 0.5 µM) of 0.463.
With HCC-827 the relative viability ([1]; first compound 0.02 µM) was 0.634, the relative viability ([1]; first compound 0.06325 µM) was 0.465 and the relative viability ([1]; first compound 0.2 µM) was 0.649. The relative viability ([1]; first compound 2 µM) was 0.609, the relative viability ([2]; first compound 0.02 µM) was 1.11 and the relative viability ([2]; first compound 0.2 µM) was 1.09. The relative viability ([2]; first compound 0.6325 µM) was 1.16, the relative viability ([2]; first compound 2 µM) was 1.11 and the relative viability ([3]; first compound 0.02 µM) was 0.589. The relative viability ([3]; first compound 0.2 µM) was 0.805, the relative viability ([3]; first compound 0.6325 µM) was 0.716 and the relative viability ([3]; first compound 2 µM) was 0.713. For the same cell line, the relative viability ([4]; first compound 0.005 µM) was 0.22, the relative viability ([4]; first compound 0.01581 µM) was 0.248 and the relative viability ([4]; first compound 0.05 µM) was 0.24. It also gave a relative viability ([4]; first compound 0.1581 µM) of 0.246 and a relative viability ([4]; first compound 0.5 µM) of 0.168.
LOU-NH91 showed a relative viability ([1]; first compound 0.02 µM) of 0.312, a relative viability ([1]; first compound 0.06325 µM) of 0.271 and a relative viability ([1]; first compound 0.2 µM) of 0.352. The relative viability ([1]; first compound 2 µM) was 0.322, the relative viability ([2]; first compound 0.2 µM) was 0.512 and the relative viability ([2]; first compound 0.6325 µM) was 0.459. For the same cell line, the relative viability ([2]; first compound 2 µM) was 0.49, the relative viability ([3]; first compound 0.02 µM) was 0.3 and the relative viability ([3]; first compound 0.6325 µM) was 0.363. For the same cell line, the relative viability ([3]; first compound 2 µM) was 0.315, the relative viability ([4]; first compound 0.005 µM) was 0.426 and the relative viability ([4]; first compound 0.01581 µM) was 0.404. It also gave a relative viability ([4]; first compound 0.05 µM) of 0.449, a relative viability ([4]; first compound 0.1581 µM) of 0.377 and a relative viability ([4]; first compound 0.5 µM) of 0.543.
Cell Line NCI-H1651 has a relative viability ([1]; first compound 0.02 µM) of 0.789, a relative viability ([1]; first compound 0.06325 µM) of 0.859 and a relative viability ([1]; first compound 0.2 µM) of 0.744. For the same cell line, the relative viability ([1]; first compound 2 µM) was 0.905, the relative viability ([2]; first compound 0.02 µM) was 0.959 and the relative viability ([2]; first compound 0.2 µM) was 1.06. For the same cell line, the relative viability ([2]; first compound 0.6325 µM) was 0.921, the relative viability ([2]; first compound 2 µM) was 0.951 and the relative viability ([3]; first compound 0.02 µM) was 1.12. It also gave a relative viability ([3]; first compound 0.2 µM) of 0.911, a relative viability ([3]; first compound 0.6325 µM) of 1.05 and a relative viability ([3]; first compound 2 µM) of 0.773. For the same cell line, the relative viability ([4]; first compound 0.005 µM) was 0.436, the relative viability ([4]; first compound 0.01581 µM) was 0.661 and the relative viability ([4]; first compound 0.05 µM) was 0.572. For the same cell line, the relative viability ([4]; first compound 0.1581 µM) was 0.479 and the relative viability ([4]; first compound 0.5 µM) was 0.558.
Work on NCI-H1792 yielded a relative viability ([1]; first compound 0.02 µM) of 0.355, a relative viability ([1]; first compound 0.06325 µM) of 0.484 and a relative viability ([1]; first compound 0.2 µM) of 0.47. It also gave a relative viability ([1]; first compound 2 µM) of 0.416, a relative viability ([2]; first compound 0.02 µM) of 1.25 and a relative viability ([2]; first compound 0.2 µM) of 1.4. The relative viability ([2]; first compound 0.6325 µM) was 0.912, the relative viability ([2]; first compound 2 µM) was 0.956 and the relative viability ([3]; first compound 0.02 µM) was 0.428. The relative viability ([3]; first compound 0.2 µM) was 0.31, the relative viability ([3]; first compound 0.6325 µM) was 0.427 and the relative viability ([3]; first compound 2 µM) was 0.46. It also gave a relative viability ([4]; first compound 0.01581 µM) of 0.67, a relative viability ([4]; first compound 0.05 µM) of 0.96 and a relative viability ([4]; first compound 0.1581 µM) of 0.818. For the same cell line, the relative viability ([4]; first compound 0.5 µM) was 0.596.
In the case of PC-3 [JPC-3], the relative viability ([1]; first compound 0.02 µM) is reported as 0.774, the relative viability ([1]; first compound 0.06325 µM) is reported as 0.644 and the relative viability ([1]; first compound 0.2 µM) is reported as 0.53. It also gave a relative viability ([1]; first compound 2 µM) of 0.664, a relative viability ([2]; first compound 0.02 µM) of 0.913 and a relative viability ([2]; first compound 0.2 µM) of 0.955. For the same cell line, the relative viability ([2]; first compound 0.6325 µM) was 0.944, the relative viability ([2]; first compound 2 µM) was 0.824 and the relative viability ([3]; first compound 0.02 µM) was 0.82. For the same cell line, the relative viability ([3]; first compound 0.2 µM) was 0.757, the relative viability ([3]; first compound 0.6325 µM) was 0.709 and the relative viability ([3]; first compound 2 µM) was 0.68. It also gave a relative viability ([4]; first compound 0.005 µM) of 1.14, a relative viability ([4]; first compound 0.01581 µM) of 0.995 and a relative viability ([4]; first compound 0.05 µM) of 0.72. For the same cell line, the relative viability ([4]; first compound 0.1581 µM) was 0.624 and the relative viability ([4]; first compound 0.5 µM) was 0.365.
For NCI-H596, the relative viability ([1]; first compound 0.02 µM) was 0.913, the relative viability ([1]; first compound 0.06325 µM) was 0.975 and the relative viability ([1]; first compound 0.2 µM) was 0.929. The relative viability ([1]; first compound 2 µM) was 1.08, the relative viability ([2]; first compound 0.02 µM) was 0.9 and the relative viability ([2]; first compound 0.2 µM) was 1.28. The relative viability ([2]; first compound 0.6325 µM) was 1.31, the relative viability ([2]; first compound 2 µM) was 0.988 and the relative viability ([3]; first compound 0.02 µM) was 0.917. The relative viability ([3]; first compound 0.2 µM) was 1.02, the relative viability ([3]; first compound 0.6325 µM) was 1.02 and the relative viability ([3]; first compound 2 µM) was 1.01. It also gave a relative viability ([4]; first compound 0.005 µM) of 0.499, a relative viability ([4]; first compound 0.01581 µM) of 0.487 and a relative viability ([4]; first compound 0.05 µM) of 0.482. The relative viability ([4]; first compound 0.1581 µM) was 0.409 and the relative viability ([4]; first compound 0.5 µM) was 0.543.
